Experimental data: patent US4711898A, “4-quinolone derivatives having anti-inflammatory, anti-allergic, antitussive, expectorant and antithrombotic activity” (Nippon Shinyaku Co., Ltd., priority 1982, dated 1987)

Key:
[1] = tested on: SRS-A (slow reacting substance of anaphylaxis) contraction of ileum; assay: Anti-SRS-A action using ileus of guinea pigs; assay type: cell-based, Hartley strain male guinea pigs; conditions: 5 min, guinea pig ileum, SRS-A 20 units, compound five minutes before; for inhibition at 1 µM: Cavia porcellus, 1/1000 mM, read-out: 1/1000 mM SRS-A Inhibition Ratio %
In short: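 Ileum from male Hartley guinea pigs (300 to 350 g) in oxygenated Tyrode with 10^-7 g/ml atropine and 10^-6 g/ml pyrilamine, contracted by 20 units SRS-A. Compound added five minutes before; isotonic contraction height compared with SRS-A alone.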

[2] = tested on: passive cutaneous anaphylaxis (DNP-As homocytotropic antiserum); assay: passive cutaneous anaphylatic assay (PCA) in rats; assay type: in vivo, Wistar strain rats; conditions: 10 mg/kg orally, one hour before antigen; for inhibition in vivo at 10 mg/kg: Rattus norvegicus, po, 1 h, read-out: PCA Inhibition Ratio %
In short: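 Wistar rats were sensitised intradermally with diluted DNP-As homocytotropic antiserum and challenged 72 h later with i.v. DNP-As plus Evans Blue. Compounds were given orally at 10 mg/kg 1 h before antigen. Dye extracted from skin sites 30 min post-challenge gave inhibition relative to controls.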

carrageenin edema = assay: Carrageenin edema at the hind foot of rats; assay type: in vivo, SD-strain rats; conditions: 200 mg/kg per os, one hour before carrageenin, foot volume three hours after; for inhibition in vivo at 200 mg/kg: Rattus norvegicus, po, 3 h, read-out: % Inhibition (carrageenin edema)
Procedure: The anti-inflammatory action of the compounds of the present invention were evaluated by measuring the inhibition against carrageenin edema as set forth below. Carrageenin edema at the hind foot of rats: Experimental method. SD-strain rats of body weights of around 150 grams were used, each group consisting of five rats. A solution (0.1 ml) of 0.5% carrageenin dissolved in physiological saline water was subcutaneously injected into the right hind foot pat of the rats and, one hour prior to the injection of carrageenin, 200 mg/kg of test compound was given per os. Foot volumes of the rats before the carrageenin treatment and those of three hours after the treatment were measured and the differences were compared with those of the control group to adopt as a target of the effect of the compounds.

Molecule | inhibition at 1 µM [1] [%] | inhibition in vivo at 10 mg/kg [2] [%] | inhibition in vivo at 200 mg/kg (carrageenin edema) [%] | 1/1000 mM SRS-A Inhibition Ratio % [1] [%] | PCA Inhibition Ratio % [2] [%] | % Inhibition (carrageenin edema) (carrageenin edema) [%]
CCOC(=O)c1cccc2c(=O)cc(-c3ccc(OC)cc3OC)[nH]c12 [Example 108] | 95 | 14 | 51 | – | – | –
O=C1CC(c2ccccc2Cl)=Nc2c1cccc2C(=O)OCCO [Example 109, Beta-Hydroxyethyl 2-(2-chlorophenyl)-4-quinolone-8-carboxylate] | 100 | 29.2 | 30.7 | – | – | –
C=CCOC(=O)c1cccc2c1N=C(c1ccccc1Cl)CC2=O [Example 110, Allyl 2-(2-chlorophenyl)-4-quinolone-8-carboxylate] | 18.9 | 17.7 | 19.2 | – | – | –
CC(C)COC(=O)c1cccc2c(=O)cc(-c3ccccc3Cl)[nH]c12 [Example 112] | 25 | 24.3 | 10 | – | – | –
CC(=O)OCCOC(=O)c1cccc2c(=O)cc(-c3ccccc3Cl)[nH]c12 [Example 118] | 64.2 | 41.5 | 27.9 | – | – | –
CCOCCOC(=O)c1cccc2c(=O)cc(-c3ccccc3Cl)[nH]c12 [Example 120] | 20.3 | 10.7 | 29.4 | – | – | –
CC(O)COC(=O)c1cccc2c(=O)cc(-c3ccccc3Cl)[nH]c12 (stereo not drawn) [Example 125] | 15.6 | 10.4 | 17.2 | – | – | –
CCOC(=O)CC(=O)COC(=O)c1cccc2c(=O)cc(-c3ccccc3Cl)[nH]c12 [Example 130] | 12.7 | 20.3 | 18.3 | – | – | –
O=C(OCCO)c1cccc2c(=O)cc(-c3ccccc3F)[nH]c12 [Example 131] | 14 | 28.5 | 29.9 | – | – | –
O=C(OCCO)c1cccc2c(=O)cc(-c3ccc(Cl)cc3)[nH]c12 [Example 133] | 21.3 | 17 | 10 | – | – | –
Cc1ccc(-c2cc(=O)c3cccc(C(=O)OCCO)c3[nH]2)c(C)c1 [Example 136] | 15.4 | 19.4 | 26.9 | – | – | –
Ethyl 2-phenyl-4-quinolone-8-carboxylate [Example 80] | – | – | – | 52.4 | 20.9 | 14.7
